The text below walks through data of patent US20080253967A1, “Halo-Stilbene Derivatives And Their Use For Binding And Imaging Of Amyloid Plaques” (priority 2007, published 2008).

Several values for one entry are separate records, joined by “and”; a condition that tells them apart may be missing. Equal values may be shown once. Entries after “also recorded” stand apart in the source; their conditions may differ. Read-outs that look alike come from different tables or passages of the source.

Data set [1] concerns the target T1, amyloid plaques (Homo sapiens, UniProt P05067). The experiment in a line: Inhibition of ^125I-IMPY binding in AD brain homogenates. To be noted: read-out: Binding Affinity (Ki vs. ^125I-IMPY). On the procedure: Thus, inhibition of ^125I-IMPY binding in human AD brain homogenates was taken as an assay for the potential of test compounds to bind to amyloid plaques.
Postmortem brain tissue was obtained and neuropathological diagnosis was confirmed in accordance with the NIA-Reagan Institute Consensus Group criteria. Homogenates were then prepared from dissected gray matter, pooled in phosphate buffered saline and aliquoted into 1-ml portions (100 mg wet tissue/ml), which could be stored at −70° C. for 3-6 months without loss of binding signal.
For the binding assays brain homogenates were incubated with ^125I-IMPY (0.04-0.06 nM diluted in phosphate buffered saline (PBS)) and test compound (10^−5-10^−10 M diluted in PBS containing 0.1% bovine serum albumin (BSA)). […] The bound and free radioactivity was separated by vacuum filtration followed by 2×3 ml washes of PBS. Filters containing the bound ^125I ligand were assayed in a gamma counter.
For the binding assays brain homogenates were incubated with ^125I-IMPY (0.04-0.06 nM diluted in PBS) and test compound (10^−5-10^−10 M diluted in PBS containing 0.1% BSA). […] The bound and free radioactivity was separated by vacuum filtration followed by 2×3 ml washes of PBS. Filters containing the bound […], ligand were assayed in a gamma counter.

Data set [2] deals with 46 CNS and Cardiovascular receptor binding sites. As to the kind of experiment: Binding at CNS and Cardiovascular Receptors (panel of 46 sites). The note with it: 1 μM; inhibition >50% considered significant. On the procedure: A panel of 46 CNS and Cardiovascular receptor binding sites, including adenosine, adrenergic, benzodiazepine, bombesin, dopamine, GABA, melatonin, muscarinic, neurotensin, nicotininc acetylcholine, opiate, potassium channel, serotonin, sigma, and several transporter subtypes, was tested for binding of Compound 15. […] Inhibition of binding in excess of 50% by Compound 15 was considered potentially significant.

A short description of data set [3]: Organ distribution in normal mice after i.v. injection. Type of data set: in vivo. To be noted: for Biodistribution Brain (% dose/g in brain) / % total counted / % total recovered / Biodistribution Brain: normal male mice; for Brain penetration and clearance: normal mice. On the procedure: While under isoflurane anesthesia, 0.15 ml of a 0.9% saline solution containing ^123I-15 (5-10 μCi) was injected directly into the tail vein of ICR mice (22-25 g, male). The mice (n=3 for each time point) were sacrificed, the organs of interest were removed, weighed, and assayed with an automatic gamma counter. The percentage dose per organ was calculated by a comparison of the tissue counts to suitably diluted aliquots of the injected material. Total activities of blood were calculated under the assumption that they were 7% of the total body weight. The % dose/g of samples was calculated by comparing the sample counts with the count of the diluted initial dose. […] Similar results were obtained in female mice.
While under isoflurane anesthesia, 0.15 ml of a 0.9% saline solution containing ^123I-1b-3 (5-10 μCi) was injected directly into the tail vein of ICR mice (22-25 g, male and female) The mice (n=3 for each time point per sex) were sacrificed, the organs of interest were removed, weighed, and assayed with an automatic gamma counter. The percentage dose per organ was calculated by a comparison of the tissue counts to suitably diluted aliquots of the injected material. Total activities of blood were calculated under the assumption that they were 7% of the total body weight. The % dose/g of samples was calculated by comparing the sample counts with the count of the diluted initial dose.

Data set [4] addresses T1, amyloid plaques. The note with it: AD brain homogenates; other amyloid plaque ligands; read-out: Binding Affinity (Ki vs. ^125I-IMPY), published values; cited from earlier work.
For the next data set, the target named is fibrillar Aβ aggregates (Homo sapiens, UniProt P05067). The note with it: read-out: Inhibition constants (Ki) for binding to fibrillar Aβ aggregates; cited from earlier work.
fibrillar Aβ aggregates, sequence (P05067 672-711 limits assumed): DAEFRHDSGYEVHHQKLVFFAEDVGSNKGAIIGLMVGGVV
For another data set, the target named is AD cortical homogenates. The note with it: cited from earlier work.
The next data set can be described thus: physchem. To be noted: pH 7.4.
A further data set has as its system Aβ plaques. As to the kind of experiment: Film autoradiography of AD brain sections. Format: binding, human. The note with it: tracer concentrations, post-mortem AD brain sections. On the procedure:
Brain sections from a patient with AD were frozen in powdered dry ice and cut into 20 μm thick sections. The sections were incubated with ^123I-15 (200,000-250,000 cpm/200 μl) for 1 hour at room temperature. The sections were then dipped in saturated Li2CO3 in 40% EtOH (2×2 min. washes) and washed with 40% EtOH (1×2 min. wash) followed by rinsing with water for 30s. After drying, the ^123I-labeled sections were exposed to Kodak MR film overnight.
Brains sections from patients with AD were frozen in powdered dry ice and cut into 20 μm thick sections. The sections were incubated with ^123I-1b-3 (200,000-250,000 cpm/200 μl) for 1 hour at room temperature. The sections were then dipped in saturated Li2CO3 in 40% EtOH (2×2 min. washes) and washed with 40% EtOH (1×2 min. wash) followed by rinsing with water for 30 s. After drying, the ^123I-labeled sections were exposed to Kodak MR film overnight.

Data set [5] in a line: Estimate of human dosimetry extrapolated from mouse data. To be noted: proposed 5 mCi human dose, extrapolation from mouse data.
Data set [6] is described as follows: Partition coefficient 1-octanol/buffer. The note with it: 1-octanol / 0.1 M phosphate buffer pH 7.4.
Procedure: (§1) Partition coefficients were measured by mixing ^123I-15 with 3 g each of 1-octanol and buffer (0.1 M phosphate, pH 7.4) in a test tube. The test tube was vortexed for 3 min at room temperature, followed by centrifugation for 5 min. Two weighed samples (0.5 g each) from the 1-octanol and the buffer layer were counted in a well counter. The partition coefficient was determined by calculating the ratio of cpm/g of 1-octanol to that of the buffer. Samples from the 1-octanol layer were repartitioned until consistent partitions of coefficient values were obtained from the third partition. The measurement was done in triplicate and repeated three times.
(§2) The test tube was vortexed for 3 min at room temperature, followed by centrifugation for 5 min. Two weighed samples (0.5 g each) from the 1-octanol and the buffer layer were counted in a well counter. The partition coefficient was determined by calculating the ratio of cpm/g of 1-octanol to that of the buffer. Samples from the 1-octanol layer were repartitioned until consistent partitions of coefficient values were obtained from the third partition. The measurement was done in triplicate and repeated three times.

T1 sequence (P05067 672-711 limits assumed): as above
Procedure for physchem: as §1, §2

Broadly, the Ki is a measure of affinity in units of concentration, obtained from inhibition or displacement. Consider `CNc1ccc(/C=C/c2ccc(OCCOCCOCCF)c(I)c2)cc1` [Compound 1b-3, (E)-4-(4-(2-(2-(2-fluoroethoxy)ethoxy)ethoxy)-3-iodostyryl)-N-methylbenzenamine], for which the Ki on amyloid plaques [1] is 9 ± 1.8 nM. The “Selectivity (binding to CNS/CV receptors)” value in data set [2] is given as “No high affinity binding to any CNS receptors”. Also, the “Biodistribution Brain (% dose/g in brain)” value in data set [3] (2 min) was determined as 2.0 ± 0.4 % dose/g; in [3] (60 min), 0.51 ± 0.09 % dose/g.

`CC(=C(C#N)C#N)c1ccc2cc(N(C)CC[18F])ccc2c1` [FDDNP, 2-(1-{6-[(2-[^18F]fluoroethyl)(methyl)amino]-2-naphthyl}ethylidene)malononitrile]: the inhibition constant (Ki) at amyloid plaques [4] was 239 nM.

Take `O=C(O)c1cc(/N=N/c2ccc(-c3ccc(/N=N/c4ccc(O)c(C(=O)O)c4)cc3)cc2)ccc1O` [CG, chrysamine-G]: the inhibitory constant (Ki) on fibrillar Aβ aggregates is 370 nM.

What is called Kd is the free concentration of one partner at which half of the binding sites on the other are occupied at equilibrium, for simple one-to-one binding. Turning to `CNc1ccc(/C=C/c2ccc(O)cc2)cc1` [[^3H]SB-13], the dissociation constant Kd at AD cortical homogenates was 2.4 ± 0.2 nM.

Broadly, the logD is lipophilicity at a set pH, counting ionised and neutral species. As usually defined, the logP is a log measure of how a compound divides between an organic and an aqueous phase. In the case of `CNc1ccc(/C=C/c2cc([123I])cc(OCCO)c2)cc1` [^123I-15], the “Estimated human effective dose (ED)” value is given as “approximately 1.1 rem”. In the data set “physchem”, the logD was 2.4 and the lipophilicity (logP) stood at 2.39. For the same compound, the “Labeling of Aβ plaques in AD brain sections” value with Aβ plaques is reported as “specifically labeled Aβ plaques”. Also, in data set [3] (2 min), the “% total counted / % total recovered” value turned out to be 86.65 ± 1.34%; the “Biodistribution Brain” value is listed as 1.49 ± 0.12 % dose/organ; the “Biodistribution Brain (% dose/g in brain)” value was 3.4 % dose/g and 3.40 ± 0.31 % dose/g. In data set [3] (60 min), the “% total counted / % total recovered” value turned out to be 87.53 ± 4.57%; the “Biodistribution Brain” value is recorded as 0.21 ± 0.01 % dose/organ; the “Biodistribution Brain (% dose/g in brain)” value is 0.43 % dose/g and 0.43 ± 0.05 % dose/g. For the same compound, in [3] (120 min), the “% total counted / % total recovered” value was 79.41 ± 5.56%. The “% total counted / % total recovered” value in [3] (180 min) was determined as 79.46 ± 5.15%. Further, the “Brain penetration and clearance” value in data set [3] was “readily penetrates and is rapidly cleared from the brain”.

For `CNc1ccc(/C=C/c2ccc(OCCOCCOCCF)c([123I])c2)cc1` [^123I-1b-3], in data set [5], the “Estimated exposure of lower large intestine” value is “approximately 4.04 rem”, the “Estimated exposure of upper large intestine” value is given as about 3.55 rem and the “Estimated human effective dose (ED)” value is listed as 1.1 rem. The “Labeling of Aβ plaques in AD brain sections” value in the data set with Aβ plaques is “specifically labeled Aβ plaques; also recorded: colocalize with plaque staining by Congo Red”. In [3] (2 min), the “% total counted / % total recovered” value was 82.20 ± 6.38%; the “Biodistribution Brain” value is given as 1.01 ± 0.16 % dose/organ; the “Biodistribution Brain (% dose/g in brain)” value was 2.0 % dose/g and 2.05 ± 0.41 % dose/g. Besides, in data set [3] (60 min), the “% total counted / % total recovered” value was 83.26 ± 6.99%; the “Biodistribution Brain” value came out at 0.26 ± 0.05 % dose/organ; the “Biodistribution Brain (% dose/g in brain)” value was 0.51 % dose/g and 0.51 ± 0.09 % dose/g. Besides, the “% total counted / % total recovered” value in data set [3] (120 min) is 83.56 ± 6.29%. Moreover, the “% total counted / % total recovered” value in data set [3] (180 min) was determined as 79.15 ± 6.31%. Moreover, the “Brain penetration and clearance” value in data set [3] was “readily penetrates and is rapidly cleared from the brain”. In [6], this compound registered a Partition coefficient of 432 and a logP of 2.63.

As to `CNc1ccc(/C=C/c2ccc(OCCOCCOCCF)cc2)cc1` [Compound 3, (E)-4-(2-(6-(2-(2-(2-fluoroethoxy)ethoxy)ethoxy)phenyl)-vinyl)-N-methylbenzamine, reference compound], at amyloid plaques [1], the inhibition constant Ki worked out at 6.7 ± 0.3 nM. Besides, the “Selectivity (binding to CNS/CV receptors)” value in data set [2] is “No high affinity binding to any CNS receptors”. For the same compound, the “Biodistribution Brain (% dose/g in brain)” value is 4.8 ± 0.2 % dose/g in data set [3] (2 min) and 1.5 ± 0.2 % dose/g in data set [3] (60 min).
